According to patent publication US12599136B2, “Substituted isophthalic acid diamides and their use as herbicides” (Bayer Aktiengesellschaft, priority 2020, dated 2026):

Key:
Assay type in all cases: in vivo
[1] = tested on: Abutilon theophrasti; experiment: Pre-emergence herbicidal action against ABUTH; conditions: visual score after 3 weeks vs untreated controls
Outline: (§1)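 Sandy loam pots, seeds covered with soil, then surface-treated with WP or EC formulations at 600–800 l/ha water plus 0.2% wetting agent. Greenhouse, 3 weeks. Percent damage vs untreated controls.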

[2] = tested on: Alopecurus myosuroides; experiment: Pre-emergence herbicidal action against ALOMY; conditions: 320 g/ha; visual score after 3 weeks vs untreated controls
Outline: as §1

[3] = tested on: Amaranthus retroflexus; experiment: Pre-emergence herbicidal action against AMARE; conditions: visual score after 3 weeks vs untreated controls
Outline: as §1

[4] = tested on: Avena fatua; experiment: Pre-emergence herbicidal action against AVEFA; conditions: visual score after 3 weeks vs untreated controls
Outline: as §1

[5] = tested on: Cyperus esculentus; experiment: Pre-emergence herbicidal action against CYPES; conditions: visual score after 3 weeks vs untreated controls
Outline: as §1

[6] = tested on: Echinochloa crus-galli; experiment: Pre-emergence herbicidal action against ECHCG; conditions: visual score after 3 weeks vs untreated controls
Outline: as §1

[7] = tested on: Matricaria inodora; experiment: Pre-emergence herbicidal action against MATIN; conditions: visual score after 3 weeks vs untreated controls
Outline: as §1

[8] = tested on: Pharbitis purpurea; experiment: Pre-emergence herbicidal action against PHBPU; conditions: 320 g/ha; visual score after 3 weeks vs untreated controls
Outline: as §1

[9] = tested on: Hordeum murinum; experiment: Pre-emergence herbicidal action against HORMU; conditions: 320 g/ha; visual score after 3 weeks vs untreated controls
Outline: as §1

[10] = tested on: Lolium rigidum; experiment: Pre-emergence herbicidal action against LOLRI
Outline: as §1

[11] = tested on: Polygonum convolvulus; experiment: Pre-emergence herbicidal action against POLCO
Outline: as §1

[12] = tested on: Setaria viridis; experiment: Pre-emergence herbicidal action against SETVI
Outline: as §1

[13] = tested on: Stellaria media; experiment: Pre-emergence herbicidal action against STEME
Outline: as §1

[14] = tested on: Veronica persica; experiment: Pre-emergence herbicidal action against VERPE; conditions: 320 g/ha
Outline: as §1

[15] = tested on: Viola tricolor; experiment: Pre-emergence herbicidal action against VIOTR
Outline: as §1

[16] = tested on: Abutilon theophrasti; experiment: Post-emergence herbicidal action against ABUTH
Outline: (§2)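 Herbicidal action is a visual percentage rating (0% = as untreated control, 100% = plants dead) made roughly 3 weeks after treatment. Plants were grown in sandy loam in the greenhouse and treated at the one-leaf stage, 2 to 3 weeks post-sowing. Treatment was a foliar spray of wettable-powder or emulsion-concentrate formulations at 600 to 800 l/ha water plus 0.2% wetting agent.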

[17] = tested on: Alopecurus myosuroides; experiment: Post-emergence herbicidal action against ALOMY; conditions: 80 g/ha
Outline: as §2

[18] = tested on: Amaranthus retroflexus; experiment: Post-emergence herbicidal action against AMARE; conditions: visual assessment about 3 weeks after treatment
Outline: as §2

[19] = tested on: Avena fatua; experiment: Post-emergence herbicidal action against AVEFA; conditions: visual assessment about 3 weeks after treatment
Outline: as §2

[20] = tested on: Echinochloa crus-galli; experiment: Post-emergence herbicidal action against ECHCG; conditions: visual assessment about 3 weeks after treatment
Outline: as §2

[21] = tested on: Matricaria inodora; experiment: Post-emergence herbicidal action against MATIN; conditions: visual assessment about 3 weeks after treatment
Outline: as §2

[22] = tested on: Pharbitis purpurea; experiment: Post-emergence herbicidal action against PHBPU; conditions: visual assessment about 3 weeks after treatment
Outline: as §2

[23] = tested on: Lolium rigidum; experiment: Post-emergence herbicidal action against LOLRI; conditions: 80 g/ha
Method: (§3) Seeds of monocotyledonous and dicotyledonous weed and crop plants are laid out in sandy loam soil in wood-fiber pots, covered with soil and cultivated in a greenhouse under good growth conditions. 2 to 3 weeks after sowing, the test plants are treated at the one-leaf stage. The compounds of the invention, formulated in the form of wettable powders (WP) or as emulsion concentrates (EC), are then sprayed onto the green parts of the plants in the form of an aqueous suspension or emulsion at a water application rate equivalent to 600 to 800 l/ha, with addition of 0.2% wetting agent. After the test plants have been left to stand in the greenhouse under optimal growth conditions for about 3 weeks, the action of the preparations is assessed visually in comparison to untreated controls (herbicidal action in percent (%): 100% activity=the plants have died, 0% activity=like control plants). […] The tables below illustrate, in an illustrative manner, the post-emergence herbicidal action of the compounds of the invention, the herbicidal activity being stated in percent.

[24] = tested on: Polygonum convolvulus; experiment: Post-emergence herbicidal action against POLCO; conditions: visual assessment about 3 weeks after treatment
Method: as §3

[25] = tested on: Setaria viridis; experiment: Post-emergence herbicidal action against SETVI; conditions: 80 g/ha, visual assessment about 3 weeks after treatment
Outline: as §2

[26] = tested on: Stellaria media; experiment: Post-emergence herbicidal action against STEME; conditions: visual assessment about 3 weeks after treatment
Outline: as §2

[27] = tested on: Veronica persica; experiment: Post-emergence herbicidal action against VERPE; conditions: 80 g/ha, visual assessment about 3 weeks after treatment
Outline: as §2

[28] = tested on: Viola tricolor; experiment: Post-emergence herbicidal action against VIOTR
Outline: as §2

Q: Which results are given for `CCn1nnnc1NC(=O)c1ccc(C(F)(F)F)c(C(=O)n2cccn2)c1Cl` [Example 2-153]?
A: Pre-emergence action against ABUTH ([1]; 20 g/ha): 100%; Pre-emergence action against ABUTH ([1]; 80 g/ha): 100%; Pre-emergence action against ABUTH ([1]; Dosage column 320 g/ha (heading prints 3200 g/ha)): 100%; Pre-emergence action against ALOMY [2]: 90%; Pre-emergence action against AMARE ([3]; 20 g/ha): 100%; Pre-emergence action against AMARE ([3]; 80 g/ha): 100%; Pre-emergence action against AMARE ([3]; 320 g/ha): 100%; Pre-emergence action against AVEFA ([4]; 80 g/ha): 100%; Pre-emergence action against AVEFA ([4]; 320 g/ha): 100%; Pre-emergence action against CYPES ([5]; 80 g/ha): 100%; Pre-emergence action against CYPES ([5]; 320 g/ha): 100%; Pre-emergence action against ECHCG ([6]; 80 g/ha): 100%; Pre-emergence action against ECHCG ([6]; 320 g/ha): 100%; Pre-emergence action against MATIN ([7]; 20 g/ha): 100%; Pre-emergence action against MATIN ([7]; 80 g/ha): 100%; Pre-emergence action against MATIN ([7]; 320 g/ha): 100%; Pre-emergence action against PHBPU [8]: 100%; Pre-emergence action against HORMU [9]: 90%; Pre-emergence action against LOLRI ([10]; 80 g/ha): 80%; Pre-emergence action against LOLRI ([10]; 320 g/ha): 90%; Pre-emergence action against POLCO ([11]; 80 g/ha): 80%; Pre-emergence action against POLCO ([11]; 320 g/ha): 100%; Pre-emergence action against SETVI ([12]; 20 g/ha): 90%; Pre-emergence action against SETVI ([12]; 80 g/ha): 100%; Pre-emergence action against SETVI ([12]; 320 g/ha): 100%; Pre-emergence action against STEME ([13]; 20 g/ha): 90%; Pre-emergence action against STEME ([13]; 80 g/ha): 100%; Pre-emergence action against STEME ([13]; 320 g/ha): 100%; Pre-emergence action against VERPE [14]: 90%; Pre-emergence action against VIOTR ([15]; 80 g/ha): 100%; Pre-emergence action against VIOTR ([15]; 320 g/ha): 100%; Post-emergence action against ABUTH ([16]; 5 g/ha): 80%; Post-emergence action against ABUTH ([16]; 20 g/ha): 90%; Post-emergence action against ABUTH ([16]; 80 g/ha): 100%; Post-emergence action against ALOMY [17]: 90%; Post-emergence action against AMARE in % ([18]; 5 g/ha): 100%; Post-emergence action against AMARE in % ([18]; 20 g/ha): 100%; Post-emergence action against AMARE in % ([18]; 80 g/ha): 100%; Post-emergence action against AVEFA in % ([19]; 20 g/ha): 90%; Post-emergence action against AVEFA in % ([19]; 80 g/ha): 100%; Post-emergence action against ECHCG in % ([20]; 5 g/ha): 80%; Post-emergence action against ECHCG in % ([20]; 20 g/ha): 80%; Post-emergence action against ECHCG in % ([20]; 80 g/ha): 90%; Post-emergence action against MATIN in % ([21]; 5 g/ha): 90%; Post-emergence action against MATIN in % ([21]; 20 g/ha): 100%; Post-emergence action against MATIN in % ([21]; 80 g/ha): 100%; Post-emergence action against PHBPU in % ([22]; 20 g/ha): 80%; Post-emergence action against PHBPU in % ([22]; 80 g/ha): 90%; Post-emergence action against LOLRI in % [23]: 80%; Post-emergence action against POLCO in % ([24]; 20 g/ha): 90%; Post-emergence action against POLCO in % ([24]; 80 g/ha): 100%; Post-emergence action against SETVI in % [25]: 100%; Post-emergence action against STEME in % ([26]; 5 g/ha): 100%; Post-emergence action against STEME in % ([26]; 20 g/ha): 100%; Post-emergence action against STEME in % ([26]; 80 g/ha): 100%; Post-emergence action against VERPE in % [27]: 80%; Post-emergence action against VIOTR in % ([28]; 5 g/ha): 90%; Post-emergence action against VIOTR in % ([28]; 20 g/ha): 90%; Post-emergence action against VIOTR in % ([28]; 80 g/ha): 100%
